Earlier results, collected in US11813363B1, “Concentrated nutritional or supplemental compound for intestinal, gut-brain axis and neurobiological homeostasis through calibrated absorption including neurotransmitter or any equilibrating compound release to treat or mitigate disease and co-morbidities, particularly obesity and malnourishment” (priority 2022, dated 2023).

Conditions: oral ingestion; reddish-orange color of urine

## Cl.Nc1ccc(/N=N/c2ccccc2)c(N)n1 [phenazopyridine, phenazopyridine hydrochloride]
  time to visible urine color change after ingestion (earliest): ≥ 20 min
  time to visible urine color change after ingestion (latest): within one hour
